# Laboratory results from the Kinase Knowledgebase extract (Sharma et al. 2016).
# Biological target: PIK3CA (human) (UniProt P42336)
# Assay: Inhibition of PIK3CA Kinase Activity
# Chain of PIK3CA (human) (P42336 whole entry, looked up): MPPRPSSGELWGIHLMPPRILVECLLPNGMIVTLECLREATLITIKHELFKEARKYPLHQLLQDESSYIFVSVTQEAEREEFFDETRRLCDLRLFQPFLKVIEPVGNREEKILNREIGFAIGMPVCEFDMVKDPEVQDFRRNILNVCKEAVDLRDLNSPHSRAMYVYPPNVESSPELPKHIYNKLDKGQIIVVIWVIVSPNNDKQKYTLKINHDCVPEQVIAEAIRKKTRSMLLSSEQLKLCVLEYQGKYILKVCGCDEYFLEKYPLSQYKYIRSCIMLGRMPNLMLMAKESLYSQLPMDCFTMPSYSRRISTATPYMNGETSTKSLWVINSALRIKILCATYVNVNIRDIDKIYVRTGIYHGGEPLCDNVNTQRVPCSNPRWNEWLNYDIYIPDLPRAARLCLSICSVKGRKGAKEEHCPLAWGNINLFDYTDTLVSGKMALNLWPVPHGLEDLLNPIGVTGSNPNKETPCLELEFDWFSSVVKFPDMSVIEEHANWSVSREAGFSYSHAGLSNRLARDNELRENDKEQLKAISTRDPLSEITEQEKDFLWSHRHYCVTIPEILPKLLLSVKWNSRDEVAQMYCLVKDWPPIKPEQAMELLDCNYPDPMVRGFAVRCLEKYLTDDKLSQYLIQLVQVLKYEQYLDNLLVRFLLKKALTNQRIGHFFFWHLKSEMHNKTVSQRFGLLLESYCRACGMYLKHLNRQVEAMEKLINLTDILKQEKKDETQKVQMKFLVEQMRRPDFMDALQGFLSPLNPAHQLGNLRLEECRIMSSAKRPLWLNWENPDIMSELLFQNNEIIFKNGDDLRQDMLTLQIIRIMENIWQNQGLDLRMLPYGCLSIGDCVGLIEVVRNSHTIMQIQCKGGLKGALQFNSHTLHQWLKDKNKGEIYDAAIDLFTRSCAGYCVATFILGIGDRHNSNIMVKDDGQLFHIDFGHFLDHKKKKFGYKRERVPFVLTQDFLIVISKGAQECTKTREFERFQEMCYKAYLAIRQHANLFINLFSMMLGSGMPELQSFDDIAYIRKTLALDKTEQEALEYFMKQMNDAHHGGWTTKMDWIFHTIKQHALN
row,SMILES,IC50
1,CCSc1nc2c(-c3cnc(N)cn3)nc(N3CCOCC3)nc2n1C(C)CC (centres undefined),0.1 to 1 µM
2,CCC(C)n1c(N2CCN(CC)CC2)nc2c(-c3cnc(N)nc3)nc(N3CCOCC3)nc21 (centres undefined),0.1 to 1 µM
3,Nc1ncc(-c2nc(N3CCOCC3)nc3c2nc(-c2ccsc2)n3C2CCCC2)cn1,< 0.1 µM
4,CC(=O)Nc1cccc(-c2nc3c(-c4cnc(N)nc4)nc(N4CCOCC4)nc3n2C(C)C)c1,< 0.1 µM
5,CC(C)n1c(-c2ccccc2)nc2c(-c3cnc(N)nc3)nc(N3CCOCC3)nc21,< 0.1 µM
6,CC(C)n1c(-c2ccccc2)nc2c(-c3cnc(N)cn3)nc(N3CCOCC3)nc21,0.1 to 1 µM
7,CCC(C)n1c(N2CCCC2)nc2c(-c3cnc(N)nc3)nc(N3CCOCC3)nc21 (centres undefined),0.1 to 1 µM
8,CC1CCCCC1n1c(N(C)C)nc2c(-c3cnc(N)nc3)nc(N3CCOCC3)nc21 (centres undefined),0.1 to 1 µM
9,CCSc1nc2c(-c3cnc(N)nc3)nc(N3CCOCC3)nc2n1C(C)C,< 0.1 µM
10,CCCCNc1nc2c(-c3cnc(N)nc3)nc(N3CCOCC3)nc2n1C(C)CC (centres undefined),< 0.1 µM
11,CCC(C)n1c(N2CCCC2C)nc2c(-c3cnc(N)nc3)nc(N3CCOCC3)nc21 (centres undefined),0.1 to 1 µM
12,CCC(C)n1c(NC(C)C)nc2c(-c3cnc(N)cn3)nc(N3CCOCC3)nc21 (centres undefined),0.1 to 1 µM
13,Nc1ncc(-c2nc(N3CCOCC3)nc3c2nc(NCC2CC2)n3C2CCCC2)cn1,< 0.1 µM
14,CC(C)Nc1nc2c(-c3cnc(N)nc3)nc(N3CCOCC3)nc2n1C1CCCC1,< 0.1 µM
15,CN1CCN(c2nc3c(-c4cnc(N)nc4)nc(N4CCOCC4)nc3n2C2CCCC2)CC1,0.1 to 1 µM
16,CC(C)Nc1nc2c(-c3cnc(N)nc3)nc(N3CCOCC3)nc2n1C(C)C,< 0.1 µM
17,CCC(C)n1c(NCCOC)nc2c(-c3cnc(N)nc3)nc(N3CCOCC3)nc21 (centres undefined),< 0.1 µM

row,SMILES,IC50
1,CCCCNc1nc2c(-c3cnc(N)nc3)nc(N3CCOCC3)nc2n1C1CCCC1,< 0.1 µM
2,CCC(C)n1c(-c2ccccc2)nc2c(-c3cnc(N)nc3)nc(N3CCOCC3)nc21 (centres undefined),0.1 to 1 µM
3,CCC(C)n1c(NC(C)C)nc2c(-c3cnc(N)nc3)nc(N3CCOCC3)nc21 (centres undefined),< 0.1 µM
4,CSc1nc2c(-c3cnc(N)nc3)nc(N3CCOCC3)nc2n1C(C)C,< 0.1 µM
5,CC(C)n1c(OC2CCCC2)nc2c(-c3cnc(N)nc3)nc(N3CCOCC3)nc21,0.1 to 1 µM
6,CCOc1nc2c(-c3cnc(N)nc3)nc(N3CCOCC3)nc2n1C(C)CC (centres undefined),0.1 to 1 µM
7,CC(C)n1c(-c2ccsc2)nc2c(-c3cnc(N)nc3)nc(N3CCOCC3)nc21,< 0.1 µM
8,CCC(C)n1c(SC)nc2c(-c3cnc(N)nc3)nc(N3CCOCC3)nc21 (centres undefined),0.1 to 1 µM
9,CC(C)Nc1nc2c(-c3cnc(N)nc3)nc(N3CCOCC3)nc2n1C1CCCCC1C (centres undefined),< 0.1 µM
10,CC(C)n1c(-c2ccc3c(c2)OCO3)nc2c(-c3cnc(N)nc3)nc(N3CCOCC3)nc21,< 0.1 µM
11,CCC(C)n1c(N(C)C)nc2c(-c3cnc(N)nc3)nc(N3CCOCC3)nc21 (centres undefined),< 0.1 µM
12,CCC(C)n1c(Sc2ccccc2)nc2c(-c3cnc(N)nc3)nc(N3CCOCC3)nc21 (centres undefined),0.1 to 1 µM
13,CN(C)c1nc2c(-c3cnc(N)nc3)nc(N3CCOCC3)nc2n1C1CCCC1,< 0.1 µM
14,CCC(C)n1c(SC)nc2c(-c3cnc(N)cn3)nc(N3CCOCC3)nc21 (centres undefined),0.1 to 1 µM
15,CCC(C)n1c(N2CCc3ccccc3C2)nc2c(-c3cnc(N)nc3)nc(N3CCOCC3)nc21 (centres undefined),0.1 to 1 µM
16,CCC(C)n1c(NCCN(C)C)nc2c(-c3cnc(N)nc3)nc(N3CCOCC3)nc21 (centres undefined),0.1 to 1 µM
17,CCC(C)n1c(-c2ccsc2)nc2c(-c3cnc(N)nc3)nc(N3CCOCC3)nc21 (centres undefined),< 0.1 µM
